Key:
[1] = target: T1, recombinant BACE1 protein (Homo sapiens, UniProt P56817); experiment: BACE1 biochemical FRET based assay - Method 1; settings: BACE1, 120 minutes at room temperature, pH 5.0; read-out: Biochemical FRET based assay - Method 1 pIC50 (converted)
T1 construct: recombinant BACE1 protein in a final concentration of 1 μg/ml
Source text: (§1) This assay is a Fluorescence Resonance Energy Transfer Assay (FRET) based assay. The substrate for this assay is an APP derived 13 amino acids peptide that contains the ‘Swedish’ Lys-Met/Asn-Leu mutation of the amyloid precursor protein (APP) beta-secretase cleavage site. This substrate also contains two fluorophores: (7-methoxycoumarin-4-yl) acetic acid (Mca) is a fluorescent donor with excitation wavelength at 320 nm and emission at 405 nm and 2,4-Dinitrophenyl (Dnp) is a proprietary quencher acceptor. […] Upon cleavage by BACE1, the fluorophore Mca is separated from the quenching group Dnp, restoring the full fluorescence yield of the donor. The increase in fluorescence is linearly related to the rate of proteolysis.
Briefly in a 384-well format recombinant BACE1 protein in a final concentration of 1 μg/ml is incubated for 120 minutes at room temperature with 10 μm substrate in incubation buffer (40 mM Citrate buffer pH 5.0, 0.04% PEG, 4% DMSO) in the absence or presence of compound. Next the amount of proteolysis is directly measured by fluorescence measurement at T=0 and T=120 (excitation at 320 nm and emission at 405 nm). Results are expressed in RFU (Relative Fluorescence Units), as difference between T120 and T0.
(§2) A best-fit curve is fitted by a minimum sum of squares method to the plot of % Controlmin versus compound concentration. From this an IC50 value (inhibitory concentration causing 50% inhibition of activity) can be obtained.

[2] = test system: Abeta 1-37, Abeta 1-38, Abeta 1-40 and Abeta 1-42 in CSF; experiment: Pharmacology in the Beagle dog: beta-amyloid profile in cerebrospinal fluid (CSF) after a single dose; format: in vivo; settings: Canis lupus familiaris, single dose 0.31 mg/kg, 8 h post dosing, read-out: % Decrease in Abeta 1-42 at 8 h post dosing compared to own baseline
Method: Test compounds were tested to evaluate the effect on the beta-amyloid profile in cerebrospinal fluid (CSF) of dogs after a single dose, in combination with pharmacokinetic (PK) follow up and limited safety evaluation.
For each of compound 20, 21, 22 or 41, four beagle dogs (2 males, 2 females) were dosed with vehicle (1 ml/kg of an aqueous solution of 20% cyclodextrin) and 12 beagle dogs (2 males and 2 females per dosage group) were dosed with test compounds as follows:
In the case of compounds 39, 33 and 31, two beagle dogs (1 male, 1 female) were dosed with vehicle (1 ml/kg of an aqueous solution of 20% cyclodextrin) and 4 beagle dogs (2 males and 2 females) were dosed with test compound […] (0.31 mg/kg in 0.31 mg/ml of an aqueous 20% cyclodextrin solution) on an empty stomach.
Eight hours after dosing the animals got access to their regular meal for 30 minutes. Blood was taken for PK follow up (0.5, 1, 2, 4, 8, 25 and 49 hours) and serum samples for biochemistry were taken before and at 8 and 25 h after dosing. The CSF samples were used for measurement of Abeta 1-37, Abeta 1-38, Abeta 1-40 and Abeta 1-42.

[3] = target: T2, recombinant BACE2 protein (Homo sapiens, UniProt Q9Y5Z0); experiment: BACE2 biochemical FRET based assay; settings: BACE2, 450 minutes at room temperature, pH 5.0; read-out: Biochemical FRET based assay pIC50 (converted)
T2 construct: recombinant BACE2 protein in a final concentration of 0.4 μg/ml
T2 sequence (Q9Y5Z0 63-518): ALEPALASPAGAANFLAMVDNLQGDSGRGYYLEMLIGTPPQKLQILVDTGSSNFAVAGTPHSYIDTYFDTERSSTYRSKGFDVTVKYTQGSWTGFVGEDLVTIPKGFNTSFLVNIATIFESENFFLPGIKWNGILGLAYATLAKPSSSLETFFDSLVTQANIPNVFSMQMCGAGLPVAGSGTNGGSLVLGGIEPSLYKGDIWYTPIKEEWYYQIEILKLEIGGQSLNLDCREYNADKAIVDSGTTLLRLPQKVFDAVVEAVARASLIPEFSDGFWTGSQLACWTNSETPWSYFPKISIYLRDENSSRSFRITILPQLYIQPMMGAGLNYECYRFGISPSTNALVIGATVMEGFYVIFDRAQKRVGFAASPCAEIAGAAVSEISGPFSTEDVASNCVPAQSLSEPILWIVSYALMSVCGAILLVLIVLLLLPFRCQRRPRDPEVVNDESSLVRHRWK
Source text: as §1, with “assay” for “assay is an APP derived 13 amino acids peptide that”, “the beta-secretase,” for “BACE1,”
Briefly in a 384-well format recombinant BACE2 protein in a final concentration of 0.4 μg/ml is incubated for 450 minutes at room temperature with 10 μM substrate in incubation buffer (50 mM Citrate buffer pH 5.0, 0.05% PEG, no DMSO) in the absence or presence of compound. Next the amount of proteolysis is directly measured by fluorescence measurement at T=0 and T=450 (excitation at 320 nm and emission at 405 nm). Results are expressed in RFU (Relative Fluorescence Units), as difference between T450 and T0.
as §2

[4] = test system: Abeta 1-42 produced and secreted into the medium of human neuroblastoma SKNBE2 cells; experiment: Cellular αLisa assay in SKNBE2 cells, Abeta 42; format: cell-based; settings: Homo sapiens, SKNBE2, 18 h, SKNBE2 cells expressing hAPP695, incubated for 18 hours; read-out: Cellular αLisa assay in SKNBE2 cells Abeta 42 pIC50 (converted)
Method: In two αLisa assays the levels of Abeta 1-42 produced and secreted into the medium of human neuroblastoma SKNBE2 cells are quantified. The assay is based on the human neuroblastoma SKNBE2 expressing the wild type Amyloid Precursor Protein (hAPP695). The compounds are diluted and added to these cells, incubated for 18 hours and then measurements of Abeta 1-42 are taken. Abeta 1-42 are measured by sandwich αLisa. αLisa is a sandwich assay using biotinylated antibody AbN/25 attached to streptavidin coated beads and antibody cAb42/26 conjugated acceptor beads for the detection of Abeta 1-42 respectively. In the presence of Abeta 1-42, the beads come into close proximity. The excitation of the donor beads provokes the release of singlet oxygen molecules that trigger a cascade of energy transfer in the acceptor beads, resulting in light emission. Light emission is measured after 1 hour incubation (excitation at […] and emission at 615 nm).
as §2

T1 sequence (P56817 46-501): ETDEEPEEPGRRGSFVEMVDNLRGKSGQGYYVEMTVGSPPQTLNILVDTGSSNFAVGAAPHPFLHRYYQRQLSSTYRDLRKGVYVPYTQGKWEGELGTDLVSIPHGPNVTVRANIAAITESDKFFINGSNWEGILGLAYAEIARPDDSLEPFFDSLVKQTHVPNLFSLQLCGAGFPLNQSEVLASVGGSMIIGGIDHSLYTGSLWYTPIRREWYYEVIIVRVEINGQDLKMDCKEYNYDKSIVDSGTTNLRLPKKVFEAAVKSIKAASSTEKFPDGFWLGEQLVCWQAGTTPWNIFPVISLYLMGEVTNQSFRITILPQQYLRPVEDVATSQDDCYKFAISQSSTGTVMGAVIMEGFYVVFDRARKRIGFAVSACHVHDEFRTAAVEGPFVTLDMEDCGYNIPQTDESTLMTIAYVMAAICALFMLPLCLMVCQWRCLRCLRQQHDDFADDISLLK

Row | IC50 [1] | melting point | IC50 [3] | IC50 [4] | SMILES | inhibition in vivo at 0.31 mg/kg [2]
1 | 2.29 nM | 122.96 °C | 13.8 nM | 1.48 nM | COc1cnc(C(=O)Nc2ccc(F)c([C@]3(CF)CC[C@@](C)(S(C)(=O)=O)C(N)=N3)c2)cn1 [Compound 2] | 56%
2 | 77.6 nM | 214.97 °C | 513 nM | 28.8 nM | COc1cnc(C(=O)Nc2ccc(F)c([C@]3(C)CC[C@](C)(S(C)(=O)=O)C(N)=N3)c2)cn1 [Compound 9] | –
